Experimental data from patent publication US9834525B2, “Inhibitors of paxillin function and related compositions and methods” (UNIVERSITY OF TENNESSEE RESEARCH FOUNDATION, priority 2015, dated 2017).
Entries after “also recorded” stand apart in the source; their conditions may differ. Like-named read-outs stand apart in the source and are kept apart here.

Key:
[1] = tested on: UM tumor cell lines; assay: Total cell numbers in UM cultures; format: cell-based, human
[2] = tested on: retinal endothelial cells (REC); assay: REC scratch-wound assay, VEGF-induced migration; format: cell-based, human; settings: for IC50: Homo sapiens, Endothelial cell
Experimental: RECs were wounded and treated with VEGF (20 ng/mL) and either compound (II-4) (1 μM) or vehicle. Compound (II-4) reduced migration by ˜10-fold when measured 24 hrs post-scratch. (*P<0.001; n=6).
Two methods of evaluating VEGF-induced REC migration were used to assess the impact of compound (II-4) on paxillin-mediated migration: the scratch assay and the transwell (Boyden chamber) cell migration assay. To test if paxillin inhibition would reduce VEGF-induced REC migration, RECs were wounded and treated with VEGF ([…]) +/− compound (II-4) ([…]). Wound closure was monitored by phase microscopy over 24 hours and area of wound closure was calculated using the sophisticated image analysis tools in Adobe Photoshop. Cells were then fixed and nuclei were stained using DAPI to show extent of cell migration.
FIG. 2: REC scratch-wound assay. RECs were wounded and treated with VEGF (20 ng/mL) and either compound (II-4) (1 μM) or vehicle. Compound (II-4) reduced migration by ˜10-fold when measured 24 hrs post-scratch. (*P<0.001; n=6)
FIG. 17: REC migration. A) Increasing concentrations of compound (II-4) inhibit VEGF-induced migration in a scratch wound assay; [Serum Free-control, VEGF (100 ng/mL), VEGF+100 nM, 500 nM, 10 μM, 100 μM] (IC50≈180 ηM; n=6/group). Cells were stained with DAPI for representative images. B) RECs seeded onto transwell membranes were stimulated with VEGF+ vehicle or compound (II-4) for 24 hrs. Cells were removed from the topside of membrane and migrated cells were stained with DAPI [Serum-Free (SF), VEGF, +100, +500 nM, respectively]. Cell number was measured using fluorescence microscopy. All data are mean±SD (*, # P<0.001)

[3] = target: T1, melatonin-1 receptor (MT-1) (Homo sapiens, UniProt P48039); assay: Off-target counter screening, ExpresS Profile; format: binding; settings: 10 μM
T1 construct: purchased Eurofins, Cerep Panlabs ExpresS Profile
Experimental: (§1) Counter-screen assays to determine “off-target” effects are conducted at an early stage to mitigate toxicological risk of new chemical entities. Compound (II-4) (10 μM) counter screening was conducted against a wide variety of target receptors, enzymes, and ion channels using a serum-free cell-based assay, ExpresS Profile (Eurofins, Cerep Panlabs). Inhibition >50% is considered a “positive” interaction.

[4] = target: T2, serotonin receptor 5-HT2B (Homo sapiens, UniProt P41595); assay: Off-target counter screening, ExpresS Profile; format: binding; settings: 10 μM
T2 construct: purchased Eurofins, Cerep Panlabs ExpresS Profile
Experimental: as §1

[5] = tested on: FAK (Y397, Y576/577, Y925); assay: Western blot of VEGF-induced FAK phosphorylation in REC; format: cell-based, human; settings: REC under VEGF; compound (II-4) 500 nM, SU6656 1 μM
Experimental: (§2) REC, Mel 270, OMM 2.5 under Hepatocyte Growth Factor (HGF) or Vascular Endothelial Growth Factor (VEGF) stimulation conditions: Cell lysates were collected in RIPA lysis buffer (50 mM Tris-HCl, pH 7.4, 150 mM NaCl, 2 mM EDTA, 1% Nonidet P-40, 0.1% SDS) with protease 1× inhibitor cocktail (Roche; Indianapolis, Ind.). Lysates were kept on ice and centrifuged at 10,000×g×10 minutes and total protein was measured using the BCA assay (Pierce, Rockford, Ill.). Protein samples were mixed with 4×LDS loading buffer with 2.5% 2-mercaptoethanol (Sigma-Aldrich), heated to 70° C. for 10 minutes, and loaded on NuPAGE 4-12% Bis-Tris gel (Invitrogen, Carlsbad, Calif.). Immunoblotting was performed with nitrocellulose membranes (Bio-Rad, Hercules, Calif.) at 170-mA start and 110-mA end at 25 V for two hours in NuPAGE transfer buffer (Invitrogen) containing 20% methanol. Membranes were blocked using Odyssey blocking buffer (LI-COR; Lincoln, Nebr.) for one hour at room temperature with gentle shaking Membranes were then incubated at 4° C. with specific primary antibodies (1:1000) overnight. Cellular protein was normalized using rabbit-GAPDH or mouse-α-Tubulin [1:20,000] (Cell Signaling, Danvers, Mass.; LI-COR, respectively). […] Dual-channel infrared scan and quantitation of immunoblots were conducted using the ODYSSEY Sa infrared imaging system with Image Studio (Ver. 3.1.4) (LI-COR). […]

[6] = tested on: AKT (Ser473); assay: Western blot of VEGF-induced AKT phosphorylation in REC; format: cell-based, human; settings: REC under VEGF; compound (II-4) 500 nM, SU6656 1 μM
Experimental: as §2

T1 sequence (P48039 whole entry): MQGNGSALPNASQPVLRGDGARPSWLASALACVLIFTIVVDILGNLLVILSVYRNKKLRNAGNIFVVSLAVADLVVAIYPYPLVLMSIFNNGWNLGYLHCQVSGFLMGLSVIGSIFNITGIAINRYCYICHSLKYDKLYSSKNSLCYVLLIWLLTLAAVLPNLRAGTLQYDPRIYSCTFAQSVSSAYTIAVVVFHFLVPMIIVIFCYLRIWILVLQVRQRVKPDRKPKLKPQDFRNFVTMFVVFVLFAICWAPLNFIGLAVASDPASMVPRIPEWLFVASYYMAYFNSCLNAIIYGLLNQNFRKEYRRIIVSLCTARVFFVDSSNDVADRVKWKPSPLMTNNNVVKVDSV
T2 sequence (P41595 whole entry): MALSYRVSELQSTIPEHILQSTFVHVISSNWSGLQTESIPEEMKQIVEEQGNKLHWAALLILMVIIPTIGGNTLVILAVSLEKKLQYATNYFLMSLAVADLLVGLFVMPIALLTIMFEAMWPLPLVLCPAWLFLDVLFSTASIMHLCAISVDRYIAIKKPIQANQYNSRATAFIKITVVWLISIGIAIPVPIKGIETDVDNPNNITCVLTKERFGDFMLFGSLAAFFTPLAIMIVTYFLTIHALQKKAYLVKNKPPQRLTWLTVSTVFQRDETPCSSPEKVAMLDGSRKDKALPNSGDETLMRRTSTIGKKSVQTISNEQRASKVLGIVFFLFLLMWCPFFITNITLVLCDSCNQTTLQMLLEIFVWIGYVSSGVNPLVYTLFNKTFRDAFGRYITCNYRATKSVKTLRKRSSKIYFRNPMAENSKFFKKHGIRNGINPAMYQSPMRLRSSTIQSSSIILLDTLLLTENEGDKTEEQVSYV

- IC50 ([2]; VEGF (100 ng/mL), n=6/group, read-out: IC50, inhibition of VEGF-induced migration in scratch wound assay): ~180 nM
- IC50 ([2]; wound closure at 24 hours, VEGF (100 μg/mL), compound 100 μM to 10 μM as printed, read-out: IC50, inhibition of VEGF-induced REC migration (wound closure)): 181 nM
- off-target interaction, MT-1 (inhibition >50% considered positive) [3]: possible binding targets
- off-target interaction, 5-HT2B (inhibition >50% considered positive) [4]: possible binding targets
SMILES: COc1cc(C2OC(=O)Nc3c2ccc2ccccc32)cc(OC)c1OC (centres unmarked) [compound II-4]
- total cell numbers compared to untreated cultures [1]: reduction in total cell numbers
- reduction of migration in REC scratch-wound assay ([2]; VEGF (20 ng/mL), compound (II-4) 1 μM vs vehicle, 24 hrs post-scratch): ~10 fold
- VEGF-induced FAK activation (Y397, Y925) [5]: independent of both FAK Y397 autophosphorylation and Src-driven FAK Y925; also recorded: not FAK Y925 activation
- VEGF-induced activation of AKT (P-AKT Ser473) [6]: able to prevent; also recorded: reduced
